Data taken from patent publication US9526727B2, “Inhibitors of beta-secretase” (Vitae Pharmaceuticals, Inc., priority 2012, dated 2016).

Target: hERG channel (Homo sapiens (Human), UniProt Q12809)
Test: hERG-Channel Assay (Assay 3), whole-cell patch clamp
Assay type: cell-based
Settings: HEK293 cells stably transfected with hERG cDNA, pH 7.4, 35° C.
Excerpt: hERG-Channel Assay (Assay 3)
• HEK (human embryonic kidney) 293 cells were stably transfected with hERG cDNA. • Pipettes and Solutions:
Cells were superfused with a bath solution containing (mM): NaCl (137), KCl (4.0), MgCl2 (1.0), CaCl2 (1.8), Glucose (10), HEPES (10), pH 7.4 with NaOH. Patch pipettes were made from borosilicate glass tubing using a horizontal puller and filled with pipette solution containing (mM): K-aspartate (130), MgCl2 (5.0), EGTA (5.0), K2ATP (4.0), HEPES (10.0), pH 7.2 with KOH. Resistance of the microelectrodes was in the range between 2 and 5 MΩ.
Stimulation and Recording:
Membrane currents were recorded using an EPC-10 patch clamp amplifier and PatchMaster software. hERG-mediated membrane currents were recorded at 35° C., using the whole-cell configuration of the patch-clamp technique. […] During each inter-pulse interval 4 pulses scaled down by a factor of 0.2 were recorded for a P/n leak subtraction procedure. […]
The different concentrations of the test compound were applied sequentially on each of the different cells investigated. A steady state level of baseline current was measured for at least 6 sweeps prior to the application of the first test compound concentration. […]
Peak current amplitudes were measured 3 ms after the ramp to +40 mV. […]

hERG channel, sequence (Q12809 whole entry): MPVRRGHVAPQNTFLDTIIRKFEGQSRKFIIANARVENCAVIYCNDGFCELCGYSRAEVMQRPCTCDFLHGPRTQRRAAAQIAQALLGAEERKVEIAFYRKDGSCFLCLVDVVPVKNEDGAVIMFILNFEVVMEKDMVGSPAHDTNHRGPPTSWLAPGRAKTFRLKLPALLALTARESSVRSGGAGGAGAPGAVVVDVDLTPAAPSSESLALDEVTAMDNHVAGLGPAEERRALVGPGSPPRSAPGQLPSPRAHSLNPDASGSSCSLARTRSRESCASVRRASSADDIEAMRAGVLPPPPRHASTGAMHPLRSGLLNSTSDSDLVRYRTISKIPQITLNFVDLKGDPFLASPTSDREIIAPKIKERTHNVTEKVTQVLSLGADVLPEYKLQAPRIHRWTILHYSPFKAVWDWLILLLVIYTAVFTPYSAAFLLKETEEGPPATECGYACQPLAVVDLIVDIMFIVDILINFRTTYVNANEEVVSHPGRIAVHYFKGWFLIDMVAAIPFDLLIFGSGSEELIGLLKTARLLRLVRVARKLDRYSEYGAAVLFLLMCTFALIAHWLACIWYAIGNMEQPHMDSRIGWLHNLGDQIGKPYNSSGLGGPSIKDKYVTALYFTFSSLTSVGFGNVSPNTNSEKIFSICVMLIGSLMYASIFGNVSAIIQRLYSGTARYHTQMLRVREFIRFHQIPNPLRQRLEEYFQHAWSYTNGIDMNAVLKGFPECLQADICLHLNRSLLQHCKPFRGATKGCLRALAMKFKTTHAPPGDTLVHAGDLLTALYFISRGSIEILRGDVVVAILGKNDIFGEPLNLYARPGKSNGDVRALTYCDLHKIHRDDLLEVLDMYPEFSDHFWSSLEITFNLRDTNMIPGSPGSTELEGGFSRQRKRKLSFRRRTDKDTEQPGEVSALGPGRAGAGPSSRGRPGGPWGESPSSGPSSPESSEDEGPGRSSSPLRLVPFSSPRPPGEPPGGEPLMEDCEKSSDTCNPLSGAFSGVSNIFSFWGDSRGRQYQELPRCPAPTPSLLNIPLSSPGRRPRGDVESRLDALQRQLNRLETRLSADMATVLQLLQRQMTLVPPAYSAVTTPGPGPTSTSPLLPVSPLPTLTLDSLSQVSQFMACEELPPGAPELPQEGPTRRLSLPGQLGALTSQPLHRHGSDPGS

SMILES: COC1CCC2(CC1)Cc1ccc(C#N)cc1C21N=C(N)N(CC2CCCO2)C1=O (stereo not shown)
- inhibition at 10 µM: 16%
